{"source": "ChEMBL document CHEMBL3525920", "about": "“CYP4F enzymes are responsible for the elimination of fingolimod (FTY720), a novel treatment of relapsing multiple sclerosis” (Drug Metab Dispos, 2011)", "key": {"[1]": {"assay": "Activity at CYP4F in human liver microsomes assessed as intrinsic clearance for metabolite formation after 15 mins measured per mg protein by Eadie-Hofstee plot analysis", "assay_type": "ADME", "settings": "0.25 h"}, "Liver microsome [2]": {"tested_on": "Liver microsome", "assay": "Drug metabolism in human liver microsomes assessed as total metabolite formation at 1 to 50 uM after 20 mins by HPLC-RA analysis in presence of CYP3A4 inhibitor ketoconazole", "assay_type": "ADME"}, "Cytochrome P450 1A2": {"target": "Cytochrome P450 1A2 (Homo sapiens, UniProt P05177)", "assay": "Activity at CYP1A2 in human liver microsomes isolated from donors assessed as metabolite formation after 24 mins by HPLC-RA analysis", "assay_type": "ADME", "settings": "0.4 h"}, "Liver microsome [3]": {"tested_on": "Liver microsome", "assay": "Drug metabolism in human liver microsomes assessed as total metabolite formation at 1 uM after 20 mins by HPLC-RA analysis in presence of 10 uM CYP3A4 inhibitor ketoconazole", "assay_type": "ADME"}, "Cytochrome P450 2C8": {"target": "Cytochrome P450 2C8 (Homo sapiens, UniProt P10632)", "assay": "Activity at CYP2C8 in human liver microsomes isolated from donors assessed as metabolite formation after 24 mins by HPLC-RA analysis", "assay_type": "ADME", "settings": "0.4 h"}, "Cytochrome P450 2E1": {"target": "Cytochrome P450 2E1 (Homo sapiens, UniProt P05181)", "sequence (P05181 whole entry)": "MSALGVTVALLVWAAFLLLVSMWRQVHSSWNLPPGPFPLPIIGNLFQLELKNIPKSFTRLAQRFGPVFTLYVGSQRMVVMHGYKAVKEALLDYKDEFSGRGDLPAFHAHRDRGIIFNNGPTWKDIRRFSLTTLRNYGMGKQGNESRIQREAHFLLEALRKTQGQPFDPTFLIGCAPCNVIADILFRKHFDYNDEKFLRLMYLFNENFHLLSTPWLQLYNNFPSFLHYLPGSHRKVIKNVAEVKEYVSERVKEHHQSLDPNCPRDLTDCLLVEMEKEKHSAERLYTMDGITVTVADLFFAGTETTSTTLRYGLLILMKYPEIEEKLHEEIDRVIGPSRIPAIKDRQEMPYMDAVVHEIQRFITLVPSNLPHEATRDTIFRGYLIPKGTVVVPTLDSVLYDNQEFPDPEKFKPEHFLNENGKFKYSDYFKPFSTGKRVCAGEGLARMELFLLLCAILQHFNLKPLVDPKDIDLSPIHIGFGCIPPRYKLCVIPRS", "assay": "Activity at CYP2E1 in human liver microsomes isolated from donors assessed as metabolite formation after 24 mins by HPLC-RA analysis", "assay_type": "ADME", "settings": "0.4 h"}, "Cytochrome P450 4F3": {"target": "Cytochrome P450 4F3 (Homo sapiens, UniProt Q08477)", "assay": "Activity at human recombinant CYP4F3A expressed in baculovirus-infected BTI-TN-5B1-4 insect cell microsomes assessed as metabolite formation at 5 to 100 µM after 30 mins by HPLC-RA analysis", "assay_type": "ADME", "settings": "bti-tn-5b1-4, 0.5 h"}, "[4]": {"assay": "Drug metabolism in human liver cytosol assessed as metabolite formation by HPLC-RA analysis", "assay_type": "ADME, tissue-based"}, "Cytochrome P450 2C9": {"target": "Cytochrome P450 2C9 (Homo sapiens, UniProt P11712)", "sequence (P11712 whole entry)": "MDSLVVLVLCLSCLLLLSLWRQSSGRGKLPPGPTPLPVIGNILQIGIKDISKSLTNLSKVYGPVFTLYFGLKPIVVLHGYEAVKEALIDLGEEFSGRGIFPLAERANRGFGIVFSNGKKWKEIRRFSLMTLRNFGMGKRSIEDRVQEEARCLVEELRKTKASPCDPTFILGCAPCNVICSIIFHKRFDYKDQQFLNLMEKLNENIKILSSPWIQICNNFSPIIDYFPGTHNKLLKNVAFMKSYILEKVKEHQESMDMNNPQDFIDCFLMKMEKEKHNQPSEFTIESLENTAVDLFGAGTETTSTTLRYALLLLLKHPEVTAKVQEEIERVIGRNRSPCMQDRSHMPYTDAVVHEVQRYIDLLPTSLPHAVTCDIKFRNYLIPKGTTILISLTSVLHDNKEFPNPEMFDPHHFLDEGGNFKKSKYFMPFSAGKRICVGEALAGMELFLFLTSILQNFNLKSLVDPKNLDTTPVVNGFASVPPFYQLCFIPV", "assay": "Activity at CYP2C9 in human liver microsomes isolated from donors assessed as metabolite formation after 24 mins by HPLC-RA analysis", "assay_type": "ADME", "settings": "0.4 h"}, "Cytochrome P450 2D6": {"target": "Cytochrome P450 2D6 (Homo sapiens, UniProt P10635)", "sequence (P10635 whole entry)": "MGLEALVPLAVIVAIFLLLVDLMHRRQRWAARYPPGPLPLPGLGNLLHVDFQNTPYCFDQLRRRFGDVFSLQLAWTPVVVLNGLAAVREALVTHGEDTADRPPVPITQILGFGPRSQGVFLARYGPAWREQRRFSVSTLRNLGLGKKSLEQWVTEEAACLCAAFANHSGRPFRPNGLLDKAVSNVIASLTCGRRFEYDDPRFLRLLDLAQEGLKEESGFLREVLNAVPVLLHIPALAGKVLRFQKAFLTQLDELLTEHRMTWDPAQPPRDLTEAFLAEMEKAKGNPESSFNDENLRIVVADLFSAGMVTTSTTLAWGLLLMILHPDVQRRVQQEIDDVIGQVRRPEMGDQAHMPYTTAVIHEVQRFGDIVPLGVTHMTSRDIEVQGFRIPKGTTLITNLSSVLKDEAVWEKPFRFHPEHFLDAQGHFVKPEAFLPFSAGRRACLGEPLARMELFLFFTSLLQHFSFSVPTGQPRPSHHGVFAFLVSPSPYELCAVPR", "assay": "Activity at CYP2D6 in human liver microsomes isolated from donors assessed as metabolite formation after 24 mins by HPLC-RA analysis", "assay_type": "ADME", "settings": "0.4 h"}, "[5]": {"assay": "Retention time of the compound by long gradient-based HPLC-RA analysis", "assay_type": "physicochemical"}, "Cytochrome P450 3A5": {"target": "Cytochrome P450 3A5 (Homo sapiens, UniProt P20815)", "sequence (P20815 whole entry)": "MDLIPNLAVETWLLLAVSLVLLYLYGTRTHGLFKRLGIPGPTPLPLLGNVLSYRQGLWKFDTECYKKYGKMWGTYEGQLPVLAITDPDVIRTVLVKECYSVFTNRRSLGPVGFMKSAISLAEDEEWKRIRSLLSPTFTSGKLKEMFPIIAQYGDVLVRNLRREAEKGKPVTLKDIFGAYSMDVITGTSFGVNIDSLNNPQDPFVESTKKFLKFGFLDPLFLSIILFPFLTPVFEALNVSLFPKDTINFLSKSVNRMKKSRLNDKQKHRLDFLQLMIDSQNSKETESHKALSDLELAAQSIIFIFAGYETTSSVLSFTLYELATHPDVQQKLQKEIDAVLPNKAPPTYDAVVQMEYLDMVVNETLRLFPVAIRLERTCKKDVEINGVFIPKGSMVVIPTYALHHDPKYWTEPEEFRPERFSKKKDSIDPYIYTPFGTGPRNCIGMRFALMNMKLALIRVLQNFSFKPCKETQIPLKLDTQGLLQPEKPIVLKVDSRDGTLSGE", "assay": "Activity at CYP3A5 in human liver microsomes isolated from donors assessed as metabolite formation after 24 mins by HPLC-RA analysis", "assay_type": "ADME", "settings": "0.4 h"}, "Aromatase": {"target": "Aromatase (Homo sapiens, UniProt P11511)", "sequence (P11511 whole entry)": "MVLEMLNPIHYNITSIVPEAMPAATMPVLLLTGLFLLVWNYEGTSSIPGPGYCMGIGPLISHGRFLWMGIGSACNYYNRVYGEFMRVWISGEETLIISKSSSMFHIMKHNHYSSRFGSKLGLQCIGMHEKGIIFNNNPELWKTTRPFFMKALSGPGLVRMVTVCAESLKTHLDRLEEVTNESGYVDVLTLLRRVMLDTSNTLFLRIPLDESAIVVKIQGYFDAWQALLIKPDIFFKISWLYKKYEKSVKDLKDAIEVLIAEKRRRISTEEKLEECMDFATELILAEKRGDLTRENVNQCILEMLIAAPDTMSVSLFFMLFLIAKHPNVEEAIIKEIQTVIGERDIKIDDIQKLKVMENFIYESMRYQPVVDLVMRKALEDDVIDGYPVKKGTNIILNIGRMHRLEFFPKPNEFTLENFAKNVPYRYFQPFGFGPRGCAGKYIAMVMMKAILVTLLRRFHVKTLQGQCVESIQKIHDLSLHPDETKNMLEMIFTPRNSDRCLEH", "assay": "Activity at human recombinant CYP19 expressed in baculovirus-infected BTI-TN-5B1-4 insect cell microsomes assessed as metabolite formation at 5 to 100 uM after 30 mins by HPLC-RA analysis", "assay_type": "ADME", "settings": "bti-tn-5b1-4, 0.5 h"}, "Cytochrome P450 1B1": {"target": "Cytochrome P450 1B1 (Homo sapiens, UniProt Q16678)", "sequence (Q16678 whole entry)": "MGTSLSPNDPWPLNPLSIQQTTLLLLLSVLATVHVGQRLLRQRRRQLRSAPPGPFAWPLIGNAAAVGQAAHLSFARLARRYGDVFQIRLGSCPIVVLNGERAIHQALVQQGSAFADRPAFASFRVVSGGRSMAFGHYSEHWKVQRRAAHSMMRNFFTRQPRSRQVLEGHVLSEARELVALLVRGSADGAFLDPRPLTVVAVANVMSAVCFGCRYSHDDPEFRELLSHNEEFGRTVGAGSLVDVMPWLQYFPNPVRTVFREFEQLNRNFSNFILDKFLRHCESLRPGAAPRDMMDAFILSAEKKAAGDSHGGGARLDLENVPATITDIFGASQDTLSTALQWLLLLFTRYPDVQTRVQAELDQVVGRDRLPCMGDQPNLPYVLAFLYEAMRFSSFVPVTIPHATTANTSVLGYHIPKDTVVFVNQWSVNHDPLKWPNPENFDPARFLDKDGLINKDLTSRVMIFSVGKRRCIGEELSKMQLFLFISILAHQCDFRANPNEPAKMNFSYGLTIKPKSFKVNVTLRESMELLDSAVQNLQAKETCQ", "assay": "Activity at human recombinant CYP1B1 expressed in baculovirus-infected BTI-TN-5B1-4 insect cell microsomes assessed as metabolite formation at 5 to 100 uM after 30 mins by HPLC-RA analysis", "assay_type": "ADME", "settings": "bti-tn-5b1-4, 0.5 h"}, "Cytochrome P450 3A4": {"target": "Cytochrome P450 3A4 (Homo sapiens, UniProt P08684)", "sequence (P08684 whole entry)": "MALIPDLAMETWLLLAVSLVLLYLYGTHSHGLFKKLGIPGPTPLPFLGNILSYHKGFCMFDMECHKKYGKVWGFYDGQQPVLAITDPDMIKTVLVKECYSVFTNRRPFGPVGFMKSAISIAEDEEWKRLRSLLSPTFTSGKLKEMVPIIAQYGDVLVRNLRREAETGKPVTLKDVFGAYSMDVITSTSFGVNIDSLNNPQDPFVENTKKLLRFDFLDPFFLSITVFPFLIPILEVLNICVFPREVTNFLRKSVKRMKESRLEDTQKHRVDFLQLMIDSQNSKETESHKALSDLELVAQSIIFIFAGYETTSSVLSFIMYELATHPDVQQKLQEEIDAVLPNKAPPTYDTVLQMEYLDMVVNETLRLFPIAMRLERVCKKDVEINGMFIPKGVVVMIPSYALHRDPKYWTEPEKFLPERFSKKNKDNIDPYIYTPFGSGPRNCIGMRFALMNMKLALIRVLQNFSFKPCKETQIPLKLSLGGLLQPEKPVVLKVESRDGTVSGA", "assay": "Activity at CYP3A4 in human liver microsomes isolated from donors assessed as metabolite formation after 24 mins by HPLC-RA analysis", "assay_type": "ADME", "settings": "0.4 h"}, "Liver microsome [6]": {"tested_on": "Liver microsome", "assay": "Drug metabolism in human liver microsomes assessed as total metabolite formation at 1 to 50 uM after 20 mins by HPLC-RA analysis in presence of CYP2C8 inhibitor paclitaxel", "assay_type": "ADME"}, "Liver microsome [7]": {"tested_on": "Liver microsome", "assay": "Drug metabolism in human liver microsomes assessed as total metabolite formation at 1 to 50 uM after 20 mins by HPLC-RA analysis in presence of irreversible CYP3A inhibitor azamulin", "assay_type": "ADME"}, "Liver microsome [8]": {"tested_on": "Liver microsome", "assay": "Drug metabolism in human liver microsomes assessed as metabolite formation at 50 uM treated 15 mins after antibody addition measured after 20 mins by HPLC-RA analysis in presence of CYP4F2-specific polyclonal antibody", "assay_type": "ADME"}, "Liver microsome [9]": {"tested_on": "Liver microsome", "assay": "Drug metabolism in human liver microsomes assessed as total metabolite formation at 1 to 50 uM after 20 mins by HPLC-RA analysis in presence of mechanism-based CYP2E1 inhibitor DETC and NADPH", "assay_type": "ADME"}, "Cytochrome P450 2B6": {"target": "Cytochrome P450 2B6 (Homo sapiens, UniProt P20813)", "sequence (P20813 whole entry)": "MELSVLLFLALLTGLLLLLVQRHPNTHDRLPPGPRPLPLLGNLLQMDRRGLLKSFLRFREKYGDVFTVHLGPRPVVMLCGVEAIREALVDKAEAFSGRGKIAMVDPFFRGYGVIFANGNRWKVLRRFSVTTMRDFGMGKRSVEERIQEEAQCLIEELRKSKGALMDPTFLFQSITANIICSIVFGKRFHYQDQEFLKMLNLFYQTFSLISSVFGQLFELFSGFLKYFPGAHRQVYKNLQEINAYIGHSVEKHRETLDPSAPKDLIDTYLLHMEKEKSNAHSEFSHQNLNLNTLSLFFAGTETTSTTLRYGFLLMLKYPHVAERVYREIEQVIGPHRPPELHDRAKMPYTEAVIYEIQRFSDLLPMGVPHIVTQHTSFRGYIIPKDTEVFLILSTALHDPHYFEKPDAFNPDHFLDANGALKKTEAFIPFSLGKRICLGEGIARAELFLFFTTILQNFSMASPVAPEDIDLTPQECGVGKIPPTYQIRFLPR", "assay": "Activity at CYP2B6 in human liver microsomes isolated from donors assessed as metabolite formation after 24 mins by HPLC-RA analysis", "assay_type": "ADME", "settings": "0.4 h"}, "Liver microsome [10]": {"tested_on": "Liver microsome", "assay": "Drug metabolism in human liver microsomes assessed as metabolite formation at 50 uM treated 15 mins after antibody addition measured after 20 mins by HPLC-RA analysis in presence of CYP3A4-specific monoclonal antibody", "assay_type": "ADME"}, "Cytochrome P450 3A7": {"target": "Cytochrome P450 3A7 (Homo sapiens, UniProt P24462)", "assay": "Activity at human recombinant CYP3A7 expressed in baculovirus-infected BTI-TN-5B1-4 insect cell microsomes assessed as metabolite formation at 5 to 100 uM after 30 mins by HPLC-RA analysis", "assay_type": "ADME", "settings": "bti-tn-5b1-4, 0.5 h"}, "Cytochrome P450 4A11": {"target": "Cytochrome P450 4A11 (Homo sapiens, UniProt Q02928)", "sequence (Q02928 whole entry)": "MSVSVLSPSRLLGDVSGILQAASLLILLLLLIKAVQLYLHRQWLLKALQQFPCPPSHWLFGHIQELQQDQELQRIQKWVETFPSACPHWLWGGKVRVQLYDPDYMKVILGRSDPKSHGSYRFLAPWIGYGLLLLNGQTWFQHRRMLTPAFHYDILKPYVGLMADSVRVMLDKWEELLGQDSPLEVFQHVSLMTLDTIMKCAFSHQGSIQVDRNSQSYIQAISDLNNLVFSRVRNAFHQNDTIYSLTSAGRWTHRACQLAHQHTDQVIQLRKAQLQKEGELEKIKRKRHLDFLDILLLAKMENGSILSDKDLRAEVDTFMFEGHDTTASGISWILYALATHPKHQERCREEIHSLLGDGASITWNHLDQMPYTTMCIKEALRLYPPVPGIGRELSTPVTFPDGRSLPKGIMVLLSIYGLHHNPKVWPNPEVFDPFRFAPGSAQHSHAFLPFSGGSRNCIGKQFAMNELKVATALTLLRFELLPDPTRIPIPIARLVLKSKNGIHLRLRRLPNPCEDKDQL", "assay": "Activity at human recombinant CYP4A11 expressed in baculovirus-infected BTI-TN-5B1-4 insect cell microsomes assessed as metabolite formation at 5 to 100 uM after 30 mins by HPLC-RA analysis", "assay_type": "ADME", "settings": "bti-tn-5b1-4, 0.5 h"}, "[11]": {"assay": "Activity at CYP4F in human liver microsomes assessed as metabolite formation after 15 mins measured per mg protein by Eadie-Hofstee plot analysis", "assay_type": "ADME", "settings": "0.25 h"}, "Liver microsome [12]": {"tested_on": "Liver microsome", "assay": "Drug metabolism in human liver microsomes assessed as total metabolite formation at 1 to 50 uM after 20 mins by HPLC-RA analysis in presence of CYP3A4 mechanism-based inhibitor TAO and NADPH", "assay_type": "ADME"}, "[13]": {"assay": "Activity at CYP4A in human liver microsomes assessed as metabolite formation after 24 hrs by HPLC-RA analysis", "assay_type": "ADME"}, "Liver microsome [14]": {"tested_on": "Liver microsome", "assay": "Drug metabolism in human liver microsomes assessed as total metabolite formation at 1 to 50 uM after 20 mins by HPLC-RA analysis in presence of CYP2D6 inhibitor quinidine", "assay_type": "ADME"}}}
{"compound": "CCCCCCCCc1ccc(CC[14C](N)(CO)CO)cc1.Cl", "values": [{"measurement": "CLint", "setting": "[1]", "result": 10, "unit": "µL/min/mg"}, {"measurement": "Drug metabolism", "setting": "Liver microsome [2]", "result": "metabolite_not_detected"}, {"measurement": "Drug metabolism", "setting": "Cytochrome P450 1A2", "result": "metabolite_not_detected"}, {"measurement": "Drug metabolism", "setting": "Liver microsome [3]", "result": "metabolite_not_detected"}, {"measurement": "Drug metabolism", "setting": "Cytochrome P450 2C8", "result": "metabolite_not_detected"}, {"measurement": "Drug metabolism", "setting": "Cytochrome P450 2E1", "result": "metabolite_not_detected"}, {"measurement": "Drug metabolism", "setting": "Cytochrome P450 4F3", "result": "metabolite_not_detected"}, {"measurement": "Drug metabolism", "setting": "[4]", "result": "metabolite_not_detected"}, {"measurement": "Drug metabolism", "setting": "Cytochrome P450 2C9", "result": "metabolite_not_detected"}, {"measurement": "Drug metabolism", "setting": "Cytochrome P450 2D6", "result": "metabolite_not_detected"}, {"measurement": "Retention_time", "setting": "[5]", "result": 41.9, "unit": "min"}, {"measurement": "Drug metabolism", "setting": "Cytochrome P450 3A5", "result": "metabolite_not_detected"}, {"measurement": "Drug metabolism", "setting": "Aromatase", "result": "metabolite_not_detected"}, {"measurement": "Drug metabolism", "setting": "Cytochrome P450 1B1", "result": "metabolite_not_detected"}, {"measurement": "Drug metabolism", "setting": "Cytochrome P450 3A4", "result": "metabolite_not_detected"}, {"measurement": "Drug metabolism", "setting": "Liver microsome [6]", "result": "metabolite_detected"}, {"measurement": "Drug metabolism", "setting": "Liver microsome [7]", "result": "metabolite_not_detected"}, {"measurement": "Drug metabolism", "setting": "Liver microsome [8]", "result": "metabolite_not_detected"}, {"measurement": "Drug metabolism", "setting": "Liver microsome [9]", "result": "metabolite_detected"}, {"measurement": "Drug metabolism", "setting": "Cytochrome P450 2B6", "result": "metabolite_not_detected"}, {"measurement": "Drug metabolism", "setting": "Liver microsome [10]", "result": "metabolite_detected"}, {"measurement": "Drug metabolism", "setting": "Cytochrome P450 3A7", "result": "metabolite_not_detected"}, {"measurement": "Drug metabolism", "setting": "Cytochrome P450 4A11", "result": "metabolite_not_detected"}, {"measurement": "Vmax", "setting": "[11]", "result": 847, "unit": "pmol/min"}, {"measurement": "Drug metabolism", "setting": "Liver microsome [12]", "result": "metabolite_detected"}, {"measurement": "Drug metabolism", "setting": "[13]", "result": "metabolite_not_detected"}, {"measurement": "Drug metabolism", "setting": "Liver microsome [14]", "result": "metabolite_detected"}]}
